Patent US20250312345A1, “NON-COVALENT INHIBITORS OF THE MAIN PROTEASE OF SARS-COV-2 AND METHODS OF USE” (YALE UNIVERSITY, priority 2022, published 2025)
Where two headings read alike, the source gives them in different places.

Key:
[1] = target: SARS-CoV-2 M^pro (Severe acute respiratory syndrome coronavirus 2, UniProt P0DTD1); test: biochemical; assay type: biochemical
[2] = Thermodynamic aqueous solubility, shake-flask; assay type: physicochemical; conditions: 48 h
Method: The calibration and measurement (after 48 h of stirring) were performed on the same day.

[3] = test system: SARS-CoV-2 replicon; test: microbe, parasite or virus in culture; assay type: cell-based; conditions: for IC50: read-out: calculated IC50, compound alone
[4] = test system: SARS-CoV-2 replicon; assay type: cell-based
[5] = test system: Vero E6 cells; conditions: cited from earlier work
[6] = test system: normal human bronchial epithelial cells (NHBE); conditions: cited from earlier work
[7] = PAMPA assay; conditions: PBS pH 7.4, 5% DMSO, 18 hours, room temperature
[8] = test system: normal human bronchial epithelial cells (NHBE); conditions: for CC50: human
[9] = test system: SARS-CoV-2 replication; test: Serum and lung tissue extracts tested on SARS-CoV-2 replication in cell culture; assay type: cell-based; conditions: extracts of mice dosed with compound 61
[10] = test system: panel of 35 targets including CYP450 isoforms, ions channels, receptors; test: In vitro pharmacological profiling against targets for adverse drug reactions; conditions: percentage inhibition at 10 μM
Method: (§1) Rows represent compounds tested and columns represent targets. Percentage inhibition at 10 μM concentration of the compounds is color-coded. A panel of 35 targets including CYP450 isoforms, ions channels, receptors examined for off-target effects.

[11] = target: HERG ion channel (Homo sapiens, UniProt Q12809); test: In vitro pharmacological profiling, HERG; conditions: at high concentrations
Method: as §1

[12] = test system: Vero E6 cells; conditions: African green monkey
[13] = in vitro
[14] = Britton-Robinson buffer pH 6.5, shake-flask, 21-22° C.
[15] = 13 combined with remdesivir, MacSynergy II
[16] = read-out: CC50 Vero E6, Table 3, marked g: Zhang et al., ACS Cent. Sci. 2021
[17] = read-out: CC50 NHBE, Table 3, marked g: Zhang et al., ACS Cent. Sci. 2021

HERG ion channel, sequence (Q12809 whole entry): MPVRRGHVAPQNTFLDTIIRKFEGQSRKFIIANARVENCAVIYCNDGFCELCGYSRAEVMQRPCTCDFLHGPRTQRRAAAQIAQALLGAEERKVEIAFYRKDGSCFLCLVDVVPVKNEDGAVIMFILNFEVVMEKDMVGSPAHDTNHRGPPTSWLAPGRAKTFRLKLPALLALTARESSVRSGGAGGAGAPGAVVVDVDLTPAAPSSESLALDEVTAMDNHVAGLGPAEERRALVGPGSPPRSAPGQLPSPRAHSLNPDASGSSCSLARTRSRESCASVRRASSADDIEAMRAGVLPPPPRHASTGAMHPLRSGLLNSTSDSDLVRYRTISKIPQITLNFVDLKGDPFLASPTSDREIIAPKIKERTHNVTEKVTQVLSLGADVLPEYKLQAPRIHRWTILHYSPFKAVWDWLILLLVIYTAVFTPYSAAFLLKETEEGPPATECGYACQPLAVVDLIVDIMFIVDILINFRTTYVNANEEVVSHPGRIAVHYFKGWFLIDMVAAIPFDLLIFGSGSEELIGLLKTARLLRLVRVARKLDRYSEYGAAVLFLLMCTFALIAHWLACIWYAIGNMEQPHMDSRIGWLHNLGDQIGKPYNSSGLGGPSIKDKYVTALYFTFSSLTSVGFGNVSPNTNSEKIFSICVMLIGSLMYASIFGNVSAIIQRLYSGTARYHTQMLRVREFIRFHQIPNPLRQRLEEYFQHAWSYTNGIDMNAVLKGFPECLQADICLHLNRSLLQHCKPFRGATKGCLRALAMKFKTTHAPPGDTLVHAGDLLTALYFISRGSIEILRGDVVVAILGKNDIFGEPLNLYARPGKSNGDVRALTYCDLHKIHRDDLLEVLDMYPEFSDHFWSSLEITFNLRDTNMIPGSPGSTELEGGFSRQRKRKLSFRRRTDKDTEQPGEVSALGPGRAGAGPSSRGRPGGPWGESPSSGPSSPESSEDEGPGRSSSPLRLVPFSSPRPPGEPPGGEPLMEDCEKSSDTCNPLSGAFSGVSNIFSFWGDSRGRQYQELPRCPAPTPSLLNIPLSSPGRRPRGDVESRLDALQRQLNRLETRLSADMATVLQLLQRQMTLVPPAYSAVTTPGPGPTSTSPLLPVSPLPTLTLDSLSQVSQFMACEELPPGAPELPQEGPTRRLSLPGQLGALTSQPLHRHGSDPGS

In the case of `O=c1ccn(-c2cc(-c3ccccc3)c(=O)n(-c3cccnc3)c2)c(=O)[nH]1` [Cmpd 1], the IC50 ([1]; Table 4) is reported as 100 µM.

Work on `N#Cc1ccccc1-c1cc(-c2cccc(Cl)c2)c(=O)n(-c2ccc[n+]([O-])c2)c1` [Cmpd 10] yielded an IC50 ([1]; Table 4) of 15.6 ± 2.37 µM.

Molecule `N#Cc1ccccc1-c1cc(-c2cc(Cl)cc(Cl)c2)c(=O)n(-c2ccc[n+]([O-])c2)c1` [Cmpd 11] has an IC50 ([1]; Table 4) of 5 to 20 µM.

In the case of `N#Cc1cccc(-c2cc(-c3c[nH]c(=O)[nH]c3=O)cn(-c3cccnc3)c2=O)c1` [Cmpd 19], the IC50 ([1]; Table 4) is reported as roughly 10 µM.

`COc1cc(F)cc(-c2cc(-c3c[nH]c(=O)[nH]c3=O)cn(-c3cccnc3)c2=O)c1` [Cmpd 20] gave an IC50 ([1]; Table 4) of 10 to 100 µM.

With `COc1ccc(-c2cc(-c3cccc(Cl)c3)c(=O)n(-c3cccnc3)c2)c(C#N)n1` [Cmpd 22] the IC50 ([1]; Table 4) was 10 to 100 µM.

With `N#Cc1[nH]c(=O)ccc1-c1cc(-c2cccc(Cl)c2)c(=O)n(-c2cccnc2)c1` [Cmpd 23] the IC50 ([1]; Table 4) was roughly 10 µM.

For `COc1cc(CCOc2cc(Cl)cc(-c3cc(-c4ccccc4C#N)cn(-c4cccnc4)c3=O)c2)cc(OC)c1` [Cmpd 30], the IC50 ([1]; Table 4) was greater than 1 µM.

Molecule `CCNC(=O)COc1cc(Cl)cc(-c2cc(-c3ccccc3C#N)cn(-c3cccnc3)c2=O)c1` [Cmpd 33] has an IC50 ([1]; Table 4) of 0.5 to 1 µM.

Molecule `Cc1ocnc1COc1cc(Cl)cc(-c2cc(-c3c[nH]c(=O)[nH]c3=O)cn(-c3cccnc3)c2=O)c1` [Cmpd 49] has an aq. sol. [2, 14] of 7.6 ± 0.7 µg/mL.

`O=c1ccn(-c2cc(-c3cc(Cl)cc(OCC4CC4)c3)c(=O)n(-c3cccnc3)c2)c(=O)[nH]1` [Cmpd 54] gave an IC50 ([1]; Table 4) of 1.2 ± 0.1 µM.

For `O=c1c(-c2cc(Cl)cc(OCC3CC3)c2)cc(-c2ccc(F)cc2F)cn1-c1cccnc1` [Cmpd 55], the IC50 ([1]; Table 4) was roughly 10 µM.

`N#Cc1ccc(F)cc1-c1cc(-c2cc(Cl)cc(OCC3CC3)c2)c(=O)n(-c2cccnc2)c1` [Cmpd 56] gave an IC50 ([1]; Table 4) of 0.427 ± 0.027 µM.

Work on `CN(C)c1ccc(C#N)c(-c2cc(-c3cc(Cl)cc(OCC4CC4)c3)c(=O)n(-c3cccnc3)c2)c1` [Cmpd 58] yielded an IC50 ([1]; Table 4) of 1.3 ± 0.2 µM.

With `Cn1ccnc1COc1cc(Cl)cc(-c2cc(-c3ccccc3C#N)cn(-c3cccnc3)c2=O)c1` [Cmpd 59] the IC50 ([1]; Table 4) was roughly 0.194 µM.

In the case of `Cn1cc(-c2cc(-c3cc(Cl)cc(OCc4ocnc4C(F)(F)F)c3)c(=O)n(-c3cccnc3)c2)c(=O)[nH]c1=O` [Cmpd 65], the aq. sol. [2, 14] is reported as 34.5 ± 0.3 µg/mL.

Work on `O=c1[nH]cc(-c2cc(-c3cc(Cl)cc(OCC4CC4)c3)c(=O)n(-c3cncc4ccccc34)c2)c(=O)[nH]1` [Cmpd 66] yielded an IC50 ([1]; Table 4) of 0.04 ± 0.002 µM.

For `N#Cc1ccccc1-c1cc(-c2cc(Cl)cc(Cl)c2)c(=O)n(-c2cccnc2)c1` [Compound 9, 2-(3-(3,5-Dichlorophenyl)-2-oxo-2H-[1,3′-bipyridin]-5-yl)benzonitrile], the IC50 ([3]; Severe acute respiratory syndrome coronavirus 2, BHK) was 0.0938 µM.

With `CCCOc1cc(Cl)cc(-c2cc(-c3ccccc3C#N)cn(-c3cccnc3)c2=O)c1` [Compound 13, 2-(3-(3-Chloro-5-propoxyphenyl)-2-oxo-2H-[1,3′-bipyridin]-5-yl)benzonitrile] the “factor of improvement in potency over 9” value ([1]; IC50 of 13 versus 9) was “ca. 30”, the mean antagonism volume [4, 15] was 0 M^2% and the mean synergy volume [4, 15] was 30.8 M^2%. For the same molecule, the “combination behavior with remdesivir” value ([4]; range of combinations of 13 and remdesivir, FIG. 3) was “statistically significant synergistic behavior”, the CC50 [5, 16] was 22 ± 7.2 µM and the CC50 [6, 17] was 20 ± 2 µM.

Work on `O=c1[nH]cc(-c2cc(-c3cc(Cl)cc(OCc4ccccc4)c3)c(=O)n(-c3cccnc3)c2)c(=O)[nH]1` [Compound 21] yielded an IC50 ([1]; read-out: IC50 (μM), inhibition of SARS-CoV-2 M^pro, Table 1 and text, 100 nM M^pro, FRET substrate, triplicate) of 0.128 µM.

In the case of `N#Cc1ccccc1-c1cc(-c2cc(Cl)cc(OCC3CC3)c2)c(=O)n(-c2cccnc2)c1` [Compound 39, 2-(3-(3-Chloro-5-(cyclopropylmethoxy)phenyl)-2-oxo-2H-[1,3′-bipyridin]-5-yl)benzonitrile], the aq. sol. [2, 14] is listed as 3 ± 2 µg/mL, the CC50 [5] is listed as greater than 100 µM and the CC50 [6] is listed as greater than 100 µM. For the same molecule, the PAMPA permeability [7] was 4.27 ± 0.07 10^−6 cm/s.

In the case of `N#Cc1ccccc1-c1cc(-c2cc(Cl)cc(OCCC(F)(F)F)c2)c(=O)n(-c2cccnc2)c1` [Compound 47, 2-(3-(3-Chloro-5-(3,3,3-trifluoropropoxy)phenyl)-2-oxo-2H-[1,3′-bipyridin]-5-yl)benzonitrile], the “cytotoxicity towards NHBE cells” value [8] is reported as “more cytotoxic”.

In the case of `O=c1[nH]cc(-c2cc(-c3cc(Cl)cc(OCc4ccc(F)cc4Cl)c3)c(=O)n(-c3cccnc3)c2)c(=O)[nH]1` [Compound 48, 5-(3-(3-Chloro-5-((2-chloro-4-fluorobenzyl)oxy)phenyl)-2-oxo-2H-[1,3′-bipyridin]-5-yl)pyrimidine-2,4(1H,3H)-dione], the EC50 ([3]; Table 3) is listed as 120 ± 0.2 µM, the aq. sol. ([2]; pH 6.5) is listed as 25.0 ± 0.1 µg/mL and the CC50 [5] is listed as 22 ± 8 µM. For the same molecule, the CC50 [6] was 25 ± 5 µM.

For `Cn1cc(-c2cc(-c3cc(Cl)c(F)c(OCc4ccccc4Cl)c3)c(=O)n(-c3cccnc3)c2)c(=O)[nH]c1=O` [Compound 61], the “combination effect with EIDD-1931” value ([4]; combination of EIDD-1931 and compound 61, FIG. 6) was “synergistic effect”, the “inhibition of SARS-CoV-2 replication by serum and lung tissue extracts” value [9] was “exhibited inhibition” and the “off-target effects” value [10] was “no significant off-target effects”. For the same molecule, the “inhibition of HERG ion channel” value [11] was “minimal inhibition”, the aq. sol. [2, 14] was 116.5 ± 8.8 µg/mL and the CC50 [12] was greater than 32.5 µM. The CC50 [8] was greater than 32.5 µM and the CC50 [13] was greater than 32 µM.

`O=c1nc(NO)ccn1[C@@H]1O[C@H](CO)[C@@H](O)[C@H]1O` [EIDD-1931, reference compound] showed an IC50 [3] of 2.23 µM.

`O=c1[nH]cc(-c2cc(-c3cc(Cl)c(F)c(OCc4ccccc4Cl)c3)c(=O)n(-c3cccnc3)c2)c(=O)[nH]1` [compound 43] gave an aq. sol. [2, 14] of 21.8 ± 0.9 µg/mL, a CC50 [12] greater than 80 µM and a CC50 [8] greater than 95 µM. The PAMPA permeability [7] was 0.73 ± 0.05 10^−6 cm/s.

In the case of `Cc1ocnc1COc1cc(Cl)cc(-c2cc(-c3ccccc3C#N)cn(-c3cccnc3)c2=O)c1` [compound 50], the aq. sol. [2, 14] is reported as 13.1 ± 0.3 µg/mL and the PAMPA permeability [7] is reported as 3.04 ± 0.09 10^−6 cm/s.

In the case of `Cc1scnc1COc1cc(Cl)cc(-c2cc(-c3c[nH]c(=O)[nH]c3=O)cn(-c3cccnc3)c2=O)c1` [compound 51], the CC50 [12] is reported as greater than 100 µM and the CC50 [8] is reported as 22 µM.

`Cn1cc(-c2cc(-c3cc(Cl)cc(OCC4CC4)c3)c(=O)n(-c3cccnc3)c2)c(=O)[nH]c1=O` [compound 57] showed an aq. sol. [2, 14] of 14.2 ± 0.7 µg/mL, a CC50 [12] of 82 µM and a CC50 [8] greater than 100 µM.

With `Cn1cc(-c2cc(-c3cc(Cl)cc(OCCC(F)(F)F)c3)c(=O)n(-c3cccnc3)c2)c(=O)[nH]c1=O` [compound 60] the aq. sol. [2, 14] was 57.0 ± 0.4 µg/mL, the CC50 [12] was greater than 100 µM and the CC50 [8] was roughly 95 µM.

For `O=c1[nH]cc(-c2cc(-c3cc(Cl)cc(OCc4ocnc4C(F)(F)F)c3)c(=O)n(-c3cccnc3)c2)c(=O)[nH]1` [compound 62], the CC50 [12] was greater than 100 µM, the CC50 [8] was greater than 100 µM and the PAMPA permeability [7] was 0.57 ± 0.09 10^−6 cm/s.

For `O=c1[nH]cc(-c2cc(-c3cc(Cl)cc(OCc4scnc4C(F)(F)F)c3)c(=O)n(-c3cccnc3)c2)c(=O)[nH]1` [compound 63], the CC50 [12] was greater than 100 µM and the CC50 [8] was greater than 100 µM.

`Cn1cc(-c2cc(-c3cc(Cl)cc(OCc4scnc4C(F)(F)F)c3)c(=O)n(-c3cccnc3)c2)c(=O)[nH]c1=O` [compound 64] showed an aq. sol. [2, 14] of 24.8 ± 1.4 µg/mL, a CC50 [12] greater than 100 µM and a CC50 [8] greater than 100 µM. The PAMPA permeability [7] was 1.16 ± 0.32 10^−6 cm/s.

For `CCC(CC)COC(=O)[C@H](C)N[P@](=O)(OC[C@H]1O[C@@](C#N)(c2ccc3c(N)ncnn23)[C@H](O)[C@@H]1O)Oc1ccccc1` [remdesivir, reference compound], the CC50 [5, 16] is given as 72 ± 28 µM and the CC50 [6, 17] is given as 41 ± 2 µM.
